The text below walks through data of paper PMC11325505, “Nitrogen-Containing Flavonoids—Preparation and Biological Activity” (ACS Omega, 2024).

In brackets after ≈: the same amount, converted by molar mass. Where two headings read alike, the source gives them in different places.

Test [1] has as its system MRSA 3596. As to the kind of experiment: Mode of antimicrobial action with erythromycin or gentamicin, ermA- and aadD-positive strain. The format is cell-based, S. aureus. Particulars: for effect (mode of action with erythromycin) / FIC (Fractional Inhibitory Concentration Index) / effect (mode of action with gentamicin): MRSA 3596; for MIC, Gentamicin [1 mg/L] yes / MIC: MRSA 3596 (aadD); for MIC, Gentamicin [1 mg/L] yes: with gentamicin 1 mg/L; for MIC, erythromycin [1 mg/L] yes / MIC, erythromycin [1 mg/L] no: MRSA 3596 (ermA); for MIC, erythromycin [1 mg/L] yes: with erythromycin 1 mg/L; for MIC, erythromycin [1 mg/L] no: without erythromycin, Table 4; for MIC: Staphylococcus aureus, 24 h, read-out: MIC, Gentamicin [1 mg/L] no, without gentamicin, Table S6. The text has this: Erythromycin is a macrolide antibiotic that inhibits proteosynthesis by binding to the 50S subunit of the ribosome. In Staphylococcus species, resistance to erythromycin is associated with the presence of methyltransferases (encoded by erm genes) that alter the ribosomal target site. Another typical mechanism of resistance to erythromycin is the presence of an ATP-dependent efflux pump encoded by the msr(A) gene or a major facilitator superfamily (MFS) pump encoded by the lmrS gene. Both efflux pumps reduce the concentration of erythromycin in the cell below the therapeutic dose by transporting it across the membrane to the extracellular space. Another erythromycin resistance gene is the mph(C) gene, the product of which is a phosphotransferase that alters the structure of macrolide antibiotics. To elucidate the mechanism of erythromycin resistance modulation in S. aureus, further tests were performed with the strains MRSA 331 and MRSA 3596, which inactivate erythromycin via a single mechanism (ermC and ermA, respectively). […] Therefore, if the activity was not strain-specific, it would be necessary to consider the effect of the derivatives on this pump (Table 3).
(§1) Among the mechanisms of resistance to gentamicin previously described in S. aureus, the presence of enzymes that alter the structure of aminoglycosides is crucial. These enzymes can transfer nucleotides, phosphates, or acetyls to various −OH or −NH2 groups of gentamicin, preventing its subsequent interaction with the cellular target, i.e., the 30S ribosomal subunit. The bifunctional aminoglycoside-modifying enzyme with acetylation and phosphotransferase activities encoded by the gene aac(6’)/aph(2’), 4′,4″ adenyltransferase encoded by the aadD gene, and aminoglycoside O-phosphotransferase encoded by the gene aph(3′) are the most important.[37] […] For this reason, further testing continued using strains MRSA 3596 and MRSA 1584, which inactivate gentamicin only by a single mechanism (aadD and aac(6’)-aph(2’’), respectively).
(§2) Sensitization of multidrug-resistant clinical bacterial strains was performed according to ref[15]. Antibiotic cutoff concentration was chosen according to the European Committee on Antimicrobial Susceptibility Testing (EUCAST, Clinical breakpoints–bacteria, ver. 11.0). The 200 μM concentration of the derivatives was chosen as the highest test concentration. The absorbance detected at 600 nm was then used to estimate the number of viable cells after 24 h of incubation at 37 °C and 120 rpm.
(§3) Experiments were performed with the respective number of replicates indicated in each figure/table. MIC was determined as IC70. Both IC70 and IC50 values were calculated using the following nonlinear regression in the software GraphPad Prism: […]

The subject of test [2] is S. aureus MRSA 9. The test can be described thus: Antibacterial activity, multidrug-resistant strain. The format is cell-based. To be noted: Staphylococcus aureus, MRSA; multidrug-resistant strain; three repetitions ± SEM. The protocol: To evaluate the ability to modulate bacterial resistance, the tested flavonoids themselves cannot exert antimicrobial activity; therefore, the nontoxic concentration was used, as indicated in Table S5. Clinically relevant antibiotics were selected at breakpoint concentrations for susceptibility testing according to the European Committee on Antimicrobial Susceptibility Testing (EUCAST, version 11.0). […] Flavonoids and their derivatives (from 1 μM to the highest nontoxic concentration) were used in combination with the breakpoint concentration of the antibiotics. After coincubation, the minimum inhibitory concentration (MIC) of flavonoids inhibiting the visible growth of bacteria was determined (Table 2).
as §2, §3

For test [3], the system named is interleukin 6 (IL-6) production by RAW 264.7 stimulated by LPS. The test can be described thus: Anti-inflammatory activity: IL-6 production by LPS-stimulated macrophages. It is filed as cell-based, Murine. Particulars: Mus musculus, RAW264.7; LPS-stimulated RAW 264.7; average of four repetitions ± SEM. The protocol: The anti-inflammatory activity of flavonoids was evaluated as their ability to decrease the production of signaling molecules that mediate inflammation, such as nitric oxide (NO), tumor necrosis factor (TNF-α), and interleukin 6 (IL-6), in LPS-stimulated macrophages.
The anti-inflammatory activity of the tested flavonoids was determined as the ability to reduce the production of nitric oxide (NO), tumor necrosis factor (TNF-α), and interleukin 6 (IL-6) by RAW 264.7 stimulated by LPS, as previously described.[39],[40] Briefly, 1 × 10^6 cells/mL was seeded into the 96-well plate (100 μL/well). After 48 h, LPS (100 ng/mL) and the samples (3–100 μM) were added to the MEM medium. After 24 h, the medium was mixed with Griess reagent (0.04 g/mL) at a 1:1 ratio. The absorbance was measured after 15 min at 540 nm. Cell viability was determined using the resazurin assay.
To determine TNF-α levels, cells were precultivated with the tested compounds for 24 h. After 2 h of incubation with LPS, the medium was diluted 1:10 with ELISA diluent. To determine the level of IL-6, cells were cultivated for 6 h with LPS and the tested compounds. Cytokine production was determined using an uncoated ELISA performed according to the manufacturer’s instructions.

The subject of test [4] is immortalized human keratinocytes (HaCaT). As to the kind of experiment: Cytotoxicity (resazurin assay), keratinocytes. The format is cell-based. Particulars: Homo sapiens, HaCaT, 72 h, read-out: HaCaT IC50 (concentration that halved the viability). The protocol:
The cytotoxicity of the prepared derivatives was evaluated by their ability to decrease the viability of immortalized human keratinocytes (HaCaT) and human dermal fibroblasts (HDF).
100 μL of cell suspension containing 10^5 cells/mL was pipetted into a 96-well plate. After 24 h incubation, the tested compounds were added in the concentration range 12.5–200 μM. After 72 h incubation, the cell viability was tested by standard resazurin assay.[41] Briefly, the cells were washed with PBS and incubated with 100 μL of resazurin solution (0.025 mg/mL) for 2 h. The fluorescence was measured at a wavelength of 560 nm excitation/590 nm emission.

In test [5] the test system is MRSA 1584. As to the kind of experiment: Mode of antimicrobial action with gentamicin, aac(6')/aph(2')-positive strain. It is filed as cell-based, Staphylococcus aureus. Particulars: for effect (mode of action with gentamicin) / FIC (Fractional Inhibitory Concentration Index) / MIC: MRSA 1584; for MIC, Gentamicin [1 mg/L] yes: MRSA 1584 (aac(6')/aph(2')), with gentamicin 1 mg/L; for FIC (Fractional Inhibitory Concentration Index): with gentamicin; for MIC: Staphylococcus aureus, 24 h, read-out: MIC, Gentamicin [1 mg/L] no, without gentamicin.
Source text: as §1, §2, §3

Test [6] relates to RAW 264.7 cells. The test can be described thus: Cellular antioxidant activity (CAA). The format is cell-based, Murine. To be noted: for IC50: average of four repetitions ± standard error of the mean. The protocol:
To evaluate the antioxidant activity of the prepared derivatives and the respective parent compounds, cellular antioxidant activity (CAA) was measured in macrophages. Compared to other in vitro antioxidant assays, this method provides partial information about the uptake and metabolism of the compounds, because, in this assay, they must first enter the cell to exert antioxidant activity.[31] […] Derivatization of quercetin at C-8 with 4-fluoroaniline (5) increased the antioxidant activity of quercetin by 1.7-fold. […] The concentration of these derivatives required to halve the cellular radicals decreased 1.5-fold compared to luteolin.
Cellular antioxidant capacity was evaluated as previously described.[31],[39] Briefly, 100 μL of RAW 264.7 cells with a density corresponding to 1 × 10^6 cells/mL were split into 96-well plates. After 24 h, cells were washed with PBS, and DMEM supplemented with DCFH-DA (0.0125 mg/mL) was added to each well together with the tested samples in the concentration range of 1.5–200 μM. After 1 h incubation in a CO2 incubator, the medium was replaced with AAPH solution (0.16 mg/mL in PBS), and fluorescence was immediately recorded (ex./em. 485/540 nm) for 2 h in 5 min intervals.

Setting [7] is: Mus musculus, RAW264.7, macrophages RAW 264.7.

For `O=c1cc(-c2ccc(O)c(O)c2)oc2c(Nc3ccc(C(F)(F)F)cc3)c(O)cc(O)c12` [compound 14, 2-(3,4-Dihydroxyphenyl)-8-(4-(trifluoromethyl)anilino)-5,7-dihydroxy-4H–1-benzopyran-4-one], in test [1], the “effect (mode of action with erythromycin)” value was “antagonism (≥2 indicates antagonism)”; the “MIC, Gentamicin [1 mg/L] yes” value was more than 200 µM; the “MIC, erythromycin [1 mg/L] yes” value stood at 29.9 ± 1.4 µM (≈ 13.3 µg/mL); the “MIC, erythromycin [1 mg/L] no” value was 14.4 ± 0.1 µM (≈ 6.41 µg/mL). In addition, the MIC in test [1] was more than 200 µM. In addition, in test [1] (with erythromycin), the “FIC (Fractional Inhibitory Concentration Index)” value stood at 2.07 ± 0.11. Moreover, in test [2], the IC50 came out at 24 ± 0.1 µM. The compound further yielded an IC50 in test [3] of 12.4 ± 0.4 µM. The IC50 in test [4] is 26.8 ± 1.6 µM. Moreover, in test [5], the “effect (mode of action with gentamicin)” value is “indifferent (> 1 to < 2 indicates indifference)”; the “MIC, Gentamicin [1 mg/L] yes” value was determined as 26.1 ± 1.6 µM (≈ 11.6 µg/mL); the “FIC (Fractional Inhibitory Concentration Index)” value is reported as 1.71 ± 0.26; the MIC was 15.3 ± 1.3 µM (≈ 6.81 µg/mL). Moreover, in test [6] (CAA in macrophages), the “change of antioxidant activity compared to the parent compound, in words” value is “significantly decreased the antioxidant activity”. Also, the IC50 in test [6] (setting [7]) was more than 12.5 µM.
`O=c1cc(-c2ccc(O)c(O)c2)oc2cc(O)cc(O)c12` [compound 10, luteolin, reference compound]: the “effect (mode of action with erythromycin)” value is recorded as “synergy (Fractional Inhibitory Concentration Index (FIC) < 0.5 indicates synergism)” in test [1] and “synergistic activity” in test [1] (listed as luteolin). Moreover, the “effect (mode of action with gentamicin)” value in test [1] is reported as “synergy (Fractional Inhibitory Concentration Index (FIC) < 0.5 indicates synergism)”; in test [5], “additive (> 0.5-1 indicates additive effects)”. Also, the “MIC, Gentamicin [1 mg/L] yes” value came out at 6.7 ± 0.1 µM (≈ 1.92 µg/mL) in test [1] and 7.6 ± 1.0 µM (≈ 2.18 µg/mL) in test [5]. In addition, the “MIC, erythromycin [1 mg/L] yes” value in test [1] is 14.3 ± 0.9 µM (≈ 4.09 µg/mL). In addition, the “MIC, erythromycin [1 mg/L] no” value in test [1] is 51.1 ± 1.3 µM (≈ 14.6 µg/mL). For the same compound, the “FIC (Fractional Inhibitory Concentration Index)” value turned out to be 0.28 ± 0.02 in test [1] (with erythromycin), 0.13 ± 0.01 in test [1] (with gentamicin) and 0.50 ± 0.11 in test [5]. Also, the results for the MIC in test [1] and in test [5] were 51.1 ± 1.3 µM (≈ 14.6 µg/mL) and 15.2 ± 1.4 µM (≈ 4.35 µg/mL), respectively. Also, the IC50 in test [2] was more than 200 µM; in test [3] it was 7.3 ± 0.2 µM; in test [4], 34.7 ± 1 µM; in test [6] (setting [7]), 4.5 ± 0.5 µM; in test [6] (macrophages RAW 264.7) it was 4.48 µM.
Turning to `O=c1c(O)c(-c2ccc(O)c(O)c2)oc2cc(O)cc(O)c12` [compound 4, quercetin, reference compound], the “effect (mode of action with erythromycin)” value in test [1] is recorded as “synergy (Fractional Inhibitory Concentration Index (FIC) < 0.5 indicates synergism)”; in test [1] (listed as quercetin) it was “synergistic activity”. In addition, the “effect (mode of action with gentamicin)” value was “synergy (Fractional Inhibitory Concentration Index (FIC) < 0.5 indicates synergism)” in test [1] and “additive (> 0.5-1 indicates additive effects)” in test [5]. Also, the figures for the “MIC, Gentamicin [1 mg/L] yes” value in test [1] and in test [5] were 54.5 ± 0.6 µM (≈ 16.5 µg/mL) and 55.6 ± 1.1 µM (≈ 16.8 µg/mL), respectively. For the same compound, in test [1], the “MIC, erythromycin [1 mg/L] yes” value worked out at 58.6 ± 1.2 µM (≈ 17.7 µg/mL). The “MIC, erythromycin [1 mg/L] no” value in test [1] was 178.1 ± 2.7 µM (≈ 53.8 µg/mL). The “FIC (Fractional Inhibitory Concentration Index)” value was determined as 0.33 ± 0.01 in test [1] (with erythromycin), 0.31 ± 0.01 in test [1] (with gentamicin) and 0.63 ± 0.01 in test [5]. Besides, the MIC is 178 ± 2.7 µM (≈ 53.8 µg/mL) in test [1] and 88.6 ± 0.3 µM (≈ 26.8 µg/mL) in test [5]. Further, the IC50 in test [2] is more than 200 µM; in test [3], 4.7 ± 0.2 µM; in test [4], 127 ± 3.4 µM; in test [6] (setting [7]) it was 5.9 ± 0.4 µM; in test [6] (macrophages RAW 264.7) it was 5.85 µM.
`O=c1c(O)c(-c2ccc(O)c(O)c2)oc2c(Nc3ccc(F)cc3)c(O)cc(O)c12` [compound 5, 2-(3,4-Dihydroxyphenyl)-8-(4-fluoroanilino)-3,5,7-trihydroxy-4H–1-benzopyran-4-one]: the figures for the “MIC, Gentamicin [1 mg/L] yes” value in test [1] and in test [5] were more than 200 µM and 28.2 ± 0.5 µM (≈ 11.6 µg/mL), respectively. Also, the MIC is more than 200 µM in test [1] and 29.2 ± 0.1 µM (≈ 12 µg/mL) in test [5]. Further, the IC50 in test [2] was determined as 60.7 ± 2.4 µM; in test [3], 14.6 ± 0.8 µM; in test [4] (72 h incubation, resazurin, average of three repetitions ± SEM), 37.6 ± 3.4 µM; in test [6] (setting [7]) it was 3.4 ± 0.2 µM. Besides, in test [5], the “effect (mode of action with gentamicin)” value is reported as “additive (> 0.5-1 indicates additive effects)”. The “FIC (Fractional Inhibitory Concentration Index)” value in test [5] is reported as 0.97 ± 0.02.
